US20030165853A1, “Antisense imaging of gene expression of the brain in vivo” (The Regents of the University of California Office of …, priority 2000, published 2003)

Assays:
[1] = tested on: C6 cells; assay: Uptake of [125I]PNA tracers in cultured C6 cells; type: cell-based, rat; details: 2-24 h incubation, TCA-precipitable cellular fraction
Method: (§1) The uptake of ^125I-labeled antirev or antiluciferase PNA was investigated in C6-790 and C6 cells in the presence or absence of OX26/SA. Cells were grown in 24 well dishes and incubated with 5 μCi/ml (12 nM) [^125I]PNA with and without OX26/SA (1:1 molar ratio) for 2, 4, 6, or 24 h. The monolayers were then washed 3 times in 2.5 ml cold PBS (10 mM phosphate buffer, pH 7.2/150 mM NaCl) and lysed with 250 μl reporter lysis buffer (Promega), as previously described (Boado and Pardridge (1998) Mol. Brain Res. 59: 109-113). Aliquots of samples (100 μl) and standards (10 μl) were precipitated with TCA, and the percent of medium PNA that was taken up into the TCA-precipitable cellular fraction was measured and expressed either as nanograms PNA per milligram protein or percentage uptake per milligram protein. Twenty-microliter lysate aliquots were also resolved by SDS in a 12% gel. Gels were fixed in 50% MeOH and 10% acetic acid solution for 30 min, incubated in 7% MeOH, 7% acetic acid and 1% glycerol for 5 min, and dried before autoradiography with Kodak BioMax film and intensifying screens. For the pulse-chase study, either control C6 or C6-790 cells were incubated as described above with 10 μCi/ml (24 nM) [^125I]antiluciferase PNA conjugated to OX26SA for 24 h. […] TCA-precipitable cellular radioactivity was then measured at 0, 2, 6, or 24 h of incubation.

[2] = tested on: HD mRNA; assay: HD RNase protection assay; type: binding, human; details: RNase T1/A digestion, PAGE autoradiography
Method: The sense RNA was synthesized with T3 RNA polymerase following linearization of the plasmid with EcoRI. The transcribed RNA was radiolabeled with [^32Pα]ATP to a specific activity of 0.22 μCi/pmol, as previously described (Boado and Pardridge (1994) Bioconj. Chem., 6: 406-410). For the RNAse protection assay, 0.6 pmol of biotinylated HD-PNA or biotinylated luciferase-PNA, with or without conjugation to 6.4 pmol of MAb-SA, was added to 10^5 CPM of [^32P]-labeled sense HD RNA (0.2 pmol) in 3 μl buffer (80 mM NaCl, 7 mM phosphate buffer, pH=7.5, 0.1% BSA), and annealed for 30 minutes at 42° C. Then 20 units RNAse Ti and 2.5 μg RNAse A were added to the samples in 17 μl of RNAse digestion buffer (0.3 M NaCl, 10 mM TRIS pH=7.5, 4 mM EDTA, 0.02% tRNA, 0.02% BSA) and incubated for 30 min at 37° C. RNA fragments were analyzed by 7 M urea/20% polyacrylamide gel electrophoresis following by autoradiography as described by Pardridge et al. (1995) Proc. Natl. Acad. Sci., USA, 92:5592-5596. Labeled RNA and PNAs were heat denatured for 2 minutes at 95° C. and then incubated on ice for 2 minutes immediately before the experiment or conjugation to MAb-SA.

[3] = tested on: C6 experimental tumors; assay: Film autoradiography in rats bearing control C6 tumors not transfected with the luciferase transgene; type: in vivo, rat; details: 100 μCi i.v., brain removed at 2 h
Method: The C6-790 cells were implanted in the caudate-putamen nucleus of male CD Fischer 344 rats (Harlan Breeders, Indianapolis, Ind.), weighing 250-275 g under stereotaxic guidance, as described previously (Kurihara et al. (1999) Bioconjugate Chem. 10: 502-511). The animals were examined 14 days later. To confirm expression of the luciferase transgene in the tumor in vivo, tumor extracts were prepared in Promega lysis buffer, and luciferase enzyme activity was measured with luciferin as substrate (Promega) by using a Berthold (Nashua, N.H.) luminometer, as described previously (Boado and Pardridge (1998) Mol. Brain Res. 59: 109-113). A luciferase standard curve was also assayed, and the enzyme activity was expressed as picograms of luciferase equivalent per milligram of tissue protein. The C6-790 cells were grown in tissue culture as described previously (Id.), and these cells were also extracted in Promega lysis buffer for measurement of luciferase activity in the cells grown in tissue culture before implantation in brain. Control experiments were performed with C6 cells described previously (13), and these cells were used to develop brain tumors exactly as described above, except these tumor cells were not transfected with the luciferase transgene.
The brain scans and autopsy stains for three different groups of adult Fischer rats bearing the C6-790 gliomas are shown in FIG. 5. […]

[4] = rat, in vivo, iv
Method: Either the unconjugated anti-luciferase PNA or the anti-luciferase PNA conjugated to OX26/SA was injected intravenously into ketamine/xylazine anesthetized adult male Sprague-Dawley rats (270-300 g) by using methods described previously (10). The dose of radioactivity in these experiments was 5 μCi/rat of PNA (0.02 nmol) conjugated to 20 μg/rat of OX26/SA (0.1 nmol).

[5] = tested on: C6-790 cells; assay: Uptake of [125I]PNA tracers in cultured C6-790 cells; type: cell-based, rat; details: 2-24 h incubation, TCA-precipitable cellular fraction
Method: as §1

[6] = tested on: luciferase mRNA; assay: Luciferase RNase protection assay; type: binding, firefly; details: RNase A/T1 protection
Method: These methods were identical to those described previously (Pardridge et al. (1995) Proc. Natl. Acad. Sci., USA, 92: 5592-5596). The luciferase RNA was prepared with a luciferase transcription plasmid, designated clone 760, which has been described previously (Tsukamoto et al. (1997) J. Neurochem. 68: 2587-2592). The sense RNA was synthesized with T7 RNA polymerase after linearization of the plasmid with EcoRI. The transcribed RNA was radiolabeled with [^32Pα]ATP, and the correct size of the radiolabeled transcribed sense RNA was determined by agarose/formaldehyde gel electrophoresis followed by film autoradiography. For the RNase protection assay, 0.5 pmol of biotinylated luciferase PNA with or without conjugation to 10 pmol of OX26/SA was added to 10 5 cpm of ^32P-labeled sense luciferase RNA (8 fmol) in 3 μl buffer (50 mM NaCl/5 mM Tris, pH 8/0.5 mM EDTA) and annealed for 30 min at 56° C. Then 15 units of RNase T1 and 0.4 units of RNase A were added to samples in […] of RNase digestion buffer m (Ambion, Austin, Tex.). RNA fragments were analyzed by 7 M urea/20% PAGE and autoradiography, as described previously (Pardridge et al. (1995) Proc. Natl. Acad. Sci., USA, 92: 5592-5596). Labeled RNA and PNA were heat denatured for 2 min at 95° C. and then incubated on ice for 2 min immediately before the experiment or conjugation to OX26/SA.

[7] = tested on: luciferase mRNA; assay: Film autoradiography in rats bearing C6-790 brain tumors; type: in vivo, rat; details: 100 μCi i.v., brain removed at 2 h, C6-790 gliomas in Fischer rats
Method: Fourteen days after implantation of C6-790 cells, the rats were anesthetized with ketamine and xylazine for i.v. injection of brain imaging agents, as described previously (Kurihara et al. (1999) Bioconjugate Chem. 10: 502-511). […] In these studies, each rat received 0.2 nmol of PNA and 40 μg (0.2 nmol) of OX26/SA. Each rat was also administered 20 mg of L-tyrosine and 2 mg of sodium iodide i.p. 15 min before the study to block brain uptake of radiolabeled metabolites such as [^125I]tyrosine or iodide. […]

[8] = biological target: rat transferrin receptor (rat) (UniProt Q99376); assay: cell-based or functional assay
Chain of rat transferrin receptor (rat) (Q99376 whole entry): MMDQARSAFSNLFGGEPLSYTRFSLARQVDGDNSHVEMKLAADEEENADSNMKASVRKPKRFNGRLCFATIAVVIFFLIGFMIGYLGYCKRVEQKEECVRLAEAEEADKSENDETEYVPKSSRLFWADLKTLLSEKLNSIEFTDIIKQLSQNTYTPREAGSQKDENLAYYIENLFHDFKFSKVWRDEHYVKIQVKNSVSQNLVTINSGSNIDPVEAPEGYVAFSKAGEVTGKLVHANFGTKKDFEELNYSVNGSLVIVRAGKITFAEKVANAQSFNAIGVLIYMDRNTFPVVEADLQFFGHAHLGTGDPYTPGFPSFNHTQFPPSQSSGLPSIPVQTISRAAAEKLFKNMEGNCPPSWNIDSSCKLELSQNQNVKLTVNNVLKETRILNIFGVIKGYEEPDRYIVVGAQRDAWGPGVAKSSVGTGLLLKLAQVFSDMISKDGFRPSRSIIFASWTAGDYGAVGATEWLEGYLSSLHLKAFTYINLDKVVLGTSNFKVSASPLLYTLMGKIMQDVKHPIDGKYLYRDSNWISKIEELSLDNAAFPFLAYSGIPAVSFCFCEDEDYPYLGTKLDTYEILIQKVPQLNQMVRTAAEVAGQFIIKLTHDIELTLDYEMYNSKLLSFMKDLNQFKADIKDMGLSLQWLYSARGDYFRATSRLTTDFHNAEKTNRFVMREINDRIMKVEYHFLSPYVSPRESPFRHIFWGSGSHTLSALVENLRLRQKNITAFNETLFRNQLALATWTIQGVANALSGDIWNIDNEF

uptake of [125I]PNA conjugate by cells after 24 h of incubation (ng PNA per milligram of protein) [8] | Substance | uptake by C6 cells [1] | hybridization to HD mRNA (RNase protected fragment) [2] | radioactivity in control C6 tumors [3] | plasma clearance [4] [mL/min/kg] | uptake by C6-790 cells [5] | hybridization to luciferase sense RNA (protection of 16 mer RNA fragments) [6] | imaging of luciferase gene expression in brain tumor [7]
 | antiluciferase PNA: biotinylated 16-mer peptide nucleic acid antisense to luciferase mRNA (CTTCCATTTTACCAAC), linkers, Tyr-Lys, amidated carboxy terminus; radioiodinated (all peptide nucleic acid (PNA); biotinylated, linkers, Tyr-Lys, amidated carboxy terminus, radioiodinated) | negligible | did not protect the RNA from nuclease digestion | no measurable radioactivity was detectable | 7.2 ± 0.4 | negligible | hybridized to the luciferase sense RNA | no imaging of either normal brain or brain tumor
 | antirev PNA: control PNA antisense to the rev gene of HIV, sequence CTCCGCTTCTTCCTGCCA (all peptide nucleic acid (PNA); 125I-radiolabelled, conjugated to streptavidin-OX26 antibody, attachment not given here, further chemistry not fully specified) [reference compound] | negligible |  |  |  | negligible |  | 
10 | conjugate of the OX26 mAb (mouse monoclonal antibody to the rat transferrin receptor) and recombinant streptavidin (from UniProt P22629 37-163) |  |  |  |  |  |  | 
